The test system of one data set is Cardiac muscle cell. Nature of the data set: Cytoprotective activity against OGD-induced myocardial ischemic injury in neonatal rat primary cardiomyocytes assessed as decrease in cellular damage at 1 uM preincubated for 12 hrs followed by exposure to OGD condition for 3 hrs. The note with it: time 15.0 hrs. The class given is functional, cell-based.
Data set [1] deals with Mus musculus. Nature of the data set: Cardioprotective activity in ISO-induced heart failure C57BL/6J mouse assessed as fractional shortening in heart at 20 mg/kg/day, po for 14 days by echocardiography (reference value: 24.49 +/- 1.49 %). Format: functional. The note with it: time 14 day.
Data set [2] has as its system Mus musculus. Description: Inhibition of cardiomyocyte hypertrophy in ISO-induced heart failure C57BL/6J mouse assessed as decrease in PI3K phosphorylation in heart tissue administered orally daily for 14 days by Western blot analysis. Format: functional, organism-based. The note with it: dose 5-20 mg/kg/day, route po, time 14.0 day. In general terms: Immunoblotting shows a protein as a band on a membrane.

The subject of data set [3] is Mus musculus. Description: Inhibition of cardiomyocyte hypertrophy in ISO-induced heart failure C57BL/6J mouse assessed as decrease in ratio of p-AKT to AKT levels in heart tissue administered orally daily for 14 days by Western blot analysis. Format: functional, organism-based. The note with it: dose 5-20 mg/kg/day, route po, time 14.0 day.
Data set [4] concerns Mus musculus. Nature of the data set: Inhibition of cardiomyocyte hypertrophy in ISO-induced heart failure C57BL/6J mouse assessed as decrease in ratio of p-GSK-3beta to GSK-3beta levels in heart tissue administered orally daily for 14 days by Western blot analysis. The class given is functional, organism-based. The following applies: dose 5-20 mg/kg/day, route po, time 14.0 day.

Data set [5] in a line: Metabolic stability in mouse liver microsomes assessed as intrinsic clearance measured for 5 to 60 mins in presence of NADPH by LC-MS/MS analysis. The following applies: time 5-60 min, read-out: CLH. The class given is ADME, Microsome. (In general: Microsomes from liver hold many membrane-bound enzymes, among them those of drug oxidation.)
In another data set the target is T1, CYP1A2 (Homo sapiens, UniProt P05177).
T1 sequence (P05177 whole entry): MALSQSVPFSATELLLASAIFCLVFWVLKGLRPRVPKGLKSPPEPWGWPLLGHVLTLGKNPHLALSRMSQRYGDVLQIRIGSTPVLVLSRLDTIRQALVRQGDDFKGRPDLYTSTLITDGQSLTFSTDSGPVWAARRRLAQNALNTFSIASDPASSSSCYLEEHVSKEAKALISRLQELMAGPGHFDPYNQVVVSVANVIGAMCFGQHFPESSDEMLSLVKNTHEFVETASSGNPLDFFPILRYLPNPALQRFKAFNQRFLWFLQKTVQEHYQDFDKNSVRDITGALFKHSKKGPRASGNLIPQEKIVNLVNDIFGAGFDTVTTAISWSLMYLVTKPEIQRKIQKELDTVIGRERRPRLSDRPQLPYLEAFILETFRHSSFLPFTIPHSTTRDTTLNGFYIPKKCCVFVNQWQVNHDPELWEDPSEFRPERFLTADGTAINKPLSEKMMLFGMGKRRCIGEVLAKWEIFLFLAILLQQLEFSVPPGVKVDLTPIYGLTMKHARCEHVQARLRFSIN
Description: Inhibition of CYP1A2 in human liver microsomes preincubated for 10 mins followed by NADPH addition measured after 10 mins by LC/MS/MS analysis relative to control. Format: ADME, Microsome. The note with it: time 20 min.

Another data set concerns the target CYP3A4 (Homo sapiens, UniProt P08684). Description: Inhibition of CYP3A4 in human liver microsomes preincubated for 10 mins followed by NADPH addition measured after 10 mins by LC/MS/MS analysis relative to control. Format: ADME, Microsome. The following applies: time 20 min.
For data set [6], the target named is Voltage-gated inwardly rectifying potassium channel KCNH2 (Homo sapiens, UniProt Q12809). Nature of the data set: Inhibition of hERG at 30 uM. Format: toxicity. In general terms: Block of hERG is tested as a sign of cardiac risk.
The nature of data set [7]: Tmax in C57/6J mouse at 5 mg/kg, iv measured for 24 hrs. The class given is ADME, organism-based. The following applies: in vivo.
Data set [8] is described as follows: Cmax in C57/6J mouse at 5 mg/kg, iv measured for 24 hrs. The class given is ADME, organism-based. The following applies: in vivo.
The nature of data set [9]: AUC (0 to t) in C57/6J mouse at 5 mg/kg, iv measured for 24 hrs. Format: ADME, organism-based. The following applies: in vivo.
The nature of data set [10]: MRT (0 to t) in C57/6J mouse at 5 mg/kg, iv measured for 24 hrs. The class given is ADME, organism-based. The following applies: in vivo.
A short description of data set [11]: Half life in C57/6J mouse at 20 mg/kg, po measured for 24 hrs. The class given is ADME, organism-based. The following applies: in vivo.
Data set [12] in a line: Oral bioavailability in C57/6J mouse at 20 mg/kg measured for 24 hrs. The class given is ADME, organism-based. The following applies: in vivo.
The nature of data set [13]: Toxicity in C57BL/6J mouse assessed as change in relative organ weights at 400 mg/kg, po administered as single dose measured for 7 days. The note with it: in vivo, 168 h, time 7 day. The class given is organism-based.

Voltage-gated inwardly rectifying potassium channel KCNH2, sequence (Q12809 whole entry): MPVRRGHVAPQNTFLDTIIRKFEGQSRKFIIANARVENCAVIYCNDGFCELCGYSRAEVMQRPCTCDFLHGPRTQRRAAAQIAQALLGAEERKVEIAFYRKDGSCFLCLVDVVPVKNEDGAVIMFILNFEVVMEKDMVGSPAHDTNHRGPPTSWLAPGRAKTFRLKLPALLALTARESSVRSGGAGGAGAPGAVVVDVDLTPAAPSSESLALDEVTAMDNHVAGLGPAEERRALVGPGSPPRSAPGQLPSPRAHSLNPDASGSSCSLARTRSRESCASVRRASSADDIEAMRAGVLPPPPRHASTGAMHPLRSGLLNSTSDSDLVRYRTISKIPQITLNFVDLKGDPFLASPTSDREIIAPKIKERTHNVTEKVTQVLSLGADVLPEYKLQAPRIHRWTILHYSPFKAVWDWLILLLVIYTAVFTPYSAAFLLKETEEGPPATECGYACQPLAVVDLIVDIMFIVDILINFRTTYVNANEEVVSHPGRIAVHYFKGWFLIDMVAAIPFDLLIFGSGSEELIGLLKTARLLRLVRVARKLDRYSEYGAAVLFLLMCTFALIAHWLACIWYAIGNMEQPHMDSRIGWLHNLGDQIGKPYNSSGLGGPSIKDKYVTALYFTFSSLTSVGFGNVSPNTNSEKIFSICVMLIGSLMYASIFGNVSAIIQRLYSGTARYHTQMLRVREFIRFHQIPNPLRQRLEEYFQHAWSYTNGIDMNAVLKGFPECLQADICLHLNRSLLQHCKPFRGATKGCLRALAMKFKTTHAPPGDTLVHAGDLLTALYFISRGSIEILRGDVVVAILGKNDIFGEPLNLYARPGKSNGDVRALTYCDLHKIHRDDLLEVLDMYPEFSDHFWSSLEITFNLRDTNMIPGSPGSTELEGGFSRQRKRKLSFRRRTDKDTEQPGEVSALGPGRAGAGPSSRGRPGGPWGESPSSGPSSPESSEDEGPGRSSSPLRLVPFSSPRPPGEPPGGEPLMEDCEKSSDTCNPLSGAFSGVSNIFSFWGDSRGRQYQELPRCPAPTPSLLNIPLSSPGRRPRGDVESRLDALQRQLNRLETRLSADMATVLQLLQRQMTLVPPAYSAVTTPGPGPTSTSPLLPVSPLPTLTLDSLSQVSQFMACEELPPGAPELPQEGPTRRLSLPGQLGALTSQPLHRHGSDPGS
CYP3A4, sequence (P08684 whole entry): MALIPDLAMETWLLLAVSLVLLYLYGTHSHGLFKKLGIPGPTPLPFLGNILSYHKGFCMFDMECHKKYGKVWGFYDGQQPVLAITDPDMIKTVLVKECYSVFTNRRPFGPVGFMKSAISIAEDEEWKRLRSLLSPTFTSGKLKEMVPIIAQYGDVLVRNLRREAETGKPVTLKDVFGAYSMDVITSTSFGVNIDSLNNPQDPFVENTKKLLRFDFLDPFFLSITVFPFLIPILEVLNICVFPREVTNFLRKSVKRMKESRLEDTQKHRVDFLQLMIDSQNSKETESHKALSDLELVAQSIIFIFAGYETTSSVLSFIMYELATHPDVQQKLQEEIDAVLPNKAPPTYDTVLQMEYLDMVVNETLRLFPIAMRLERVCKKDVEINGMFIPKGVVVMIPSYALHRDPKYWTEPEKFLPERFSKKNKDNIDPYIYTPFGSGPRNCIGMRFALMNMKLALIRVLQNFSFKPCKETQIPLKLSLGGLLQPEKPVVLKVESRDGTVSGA

Regarding `OC[C@H]1O[C@@H](O[C@@H]2OC=C[C@H]3[C@H](O)[C@@H]4O[C@]4(COc4ccc(C(F)(F)F)cc4)[C@@H]23)[C@H](O)[C@@H](O)[C@@H]1O`, the values for the Activity result (in the data set on Cardiac muscle cell; in the data set with Mus musculus [1]; in [13]) were “Active; Exhibited Moderate Effect”, 31.27% and “Non-toxic”, respectively. Also, the inhibition entry with Mus musculus [2], in the data set on Mus musculus [3] and in the data set with Mus musculus [4] was “Dose-dependent-effect” in each case. Also, the CLint scaled in data set [5] is below 38 mL/min/kg. In addition, the results for the inhibition at 10 min against CYP1A2 and on CYP3A4 were 8% and 0.4%, respectively. Also, in data set [6], the “inhibition (INH)” value is “Not_active”. Besides, the Tmax (usually the time at which the peak concentration occurs) in data set [7] is 4.98 min. The Cmax (in general, the peak of the concentration-time curve) in data set [8] was 2710 ng/mL. In addition, the AUC(0-t) (in general, exposure summed from dosing to a finite time, without extrapolation to infinity) at 24 h in [9] was 1090 ng·h/mL. The mean residence time MRT last (usually the average time that molecules of a dose stay in the body) at 24 h in [10] was 31.2 min. Besides, the half-life – broadly, the time in which the quantity being followed falls by half – in data set [11] was 60.6 min. Also, in data set [12], the bioavailability (usually dose-corrected exposure relative to a reference, in per cent) was found to be 41.8%.

The values above are taken from ChEMBL document CHEMBL6153118, “Structure Optimization of Natural Product Catalpol to Obtain Novel and Potent Analogs against Heart Failure” (J Med Chem, 2025).
